“And” between values parts separate entries of the source, which are not always exact repeats. Identical values can stand only once.
Assays:
Assay type in all cases: functional
Candida albicans [1] = assay: Reduction in antifungal activity of amphotericine B was determined against Candida albicans after addition of 60 ppm of cholesterol to the culture
Candida albicans [2] = assay: Residual antifungal activity of amphotericine B was determined against Candida albicans after addition of 30 ppm of ent-cholesterol to the culture; (Range 14-24 mm)
Candida albicans [3] = assay: Residual antifungal activity of amphotericine B was determined against Candida albicans after addition of 60 ppm of cholesterol to the culture
Candida albicans [4] = assay: Reduction in antifungal activity of amphotericine B was determined against Candida albicans after addition of 60 ppm of compound to the culture

C[C@@H]1[C@H](O)[C@@H](C)/C=C/C=C/C=C/C=C/C=C/C=C/C=C/[C@H](O[C@@H]2O[C@H](C)[C@@H](O)[C@H](N)[C@@H]2O)C[C@@H]2O[C@](O)(C[C@@H](O)C[C@@H](O)[C@H](O)CC[C@@H](O)C[C@@H](O)CC(=O)O[C@H]1C)C[C@H](O)[C@H]2C(=O)O [AMPHOTERICIN B]
Antifungal activity (Candida albicans [1]): 82% | Antifungal activity (Candida albicans [2]): 87% | Antifungal activity (Candida albicans [3]): 73% | Antifungal activity (Candida albicans [4]): 76% and 62%
